The source of these data is patent US4260623A, “Hexahydro-1-arylspiro(3H-oxazolo(3,4-A)pyridine-3,4'-piperidene) antidepressants, pharmaceutical compositions thereof and method of use thereof” (Warner-Lambert Company, priority 1979, dated 1981).

Assay [1] concerns neuronal-uptake of norepinephrine. In words: inhibition of the neuronal-uptake of norepinephrine (tritium content of the hearts). It counts as in vivo. The note with it: Mus musculus, 1 h; at 50 mg/kg oral, male mice, heart; norepinephrine-3H i.v. one hour after dosing; vs vehicle control; read-out: % Inhibition of Amine Uptake, Norepinephrine. As to the method:
(§1) Int. Pharmacoldyn 225, 317-329 (1977)].
(§2) According to this procedure, male mice weighing approximately 25 grams are fasted overnight, then groups of five or more mice are dosed with the test compound or methocel vehicle at 50 mg/kg by oral route. After an interval of one hour, the mice are given an intravenous injection of a saline solution containing 0.5 μCi of norepinephrine-^3 H, 0.5 μCi of serotonin^14 C, and 1 mg/ml of ascorbic acid. The mice are then sacrificed about 15 minutes later, their hearts and spleens rinsed and weighed, and dissolved in a tissue solubilizer. The tritium content of the hearts and carbon-14 content of the spleen are determined by scintillation counting. The percent inhibition of uptake in comparison with the vehicle control group is then recorded.

Assay [2] relates to neuronal-uptake of serotonin. As to the kind of experiment: inhibition of the neuronal-uptake of serotonin (carbon-14 content of the spleen). Conditions: Mus musculus, 1 h, at 50 mg/kg oral, male mice, serotonin-14C i.v. one hour after dosing, vs vehicle control, read-out: % Inhibition of Amine Uptake, Serotonin. Type of assay: in vivo. As to the method: as §1, §2

Each structure is given as a SMILES string.

Consider `c1ccc(C2OC3(CCNCC3)N3CCCCC23)cc1` (stereo not shown) [Example 2, Hexahydro-1-phenylspiro[3H-oxazolo[3,4-a]pyridine-3,4'-piperidine]], for which the values for the inhibition at 50 mg/kg in assay [1] and in assay [2] were 70% and 83%, respectively.
For `CN1CCC2(CC1)OC(c1ccccc1)C1CCCCN12` (stereo not shown) [Example 3, Hexahydro-1'-methyl-1-phenylspiro[3H-oxazolo[3,4-a]pyridine-3,4'-piperidine]], in that order: 73% and 73%.
For `Fc1cccc(C2OC3(CCN(Cc4ccccc4)CC3)N3CCCCC23)c1` (stereo not shown) [Example 4, hexahydro-1'-benzyl-1-(3-fluorophenyl)spiro[3H-oxazolo[3,4-a]pyridine-3,4'-piperidine]], the values for the inhibition at 50 mg/kg in assay [1] and in assay [2] were 58% and 79%, respectively.
In the case of `Fc1cccc(C2OC3(CCNCC3)N3CCCCC23)c1` (stereo not shown) [Example 5, hexahydro-1-(3-fluorophenyl)spiro[3H-oxazolo[3,4-a]pyridine-3,4'-piperidine]], the inhibition at 50 mg/kg in assay [1] is 70%; in assay [2], 89%.
For `COc1ccccc1C1OC2(CCNCC2)N2CCCCC12` (stereo not shown) [Example 7, hexahydro-1-(2-methoxyphenyl)spiro[3H-oxazolo[3,4-a]pyridine-3,4'-piperidine]], in that order: 67% and 71%.
For `FC(F)(F)c1cccc(C2OC3(CCNCC3)N3CCCCC23)c1` (stereo not shown) [Example 9, hexahydro-1-[3-(trifluoromethyl)phenyl]spiro[3H-oxazolo[3,4-a]pyridine-3,4'piperidine]], in that order: 64% and 86%.
Take `Fc1ccc(C2OC3(CCNCC3)N3CCCCC23)cc1` (stereo not shown) [Example 11, Hexahydro-1-(4-fluorophenyl)spiro[3H-oxazolo[3,4-a]pyridine-3,4'-piperidine]]: the inhibition at 50 mg/kg in assay [1] was 73%; in assay [2], 89%.
`Clc1ccc(C2OC3(CCN(Cc4ccccc4)CC3)N3CCCCC23)cc1` (stereo not shown) [Example 12, hexahydro-1'-benzyl-1-(4-chlorophenyl)spiro[3H-oxazolo[3,4-a]pyridine-3,4'-piperidine]]: the inhibition at 50 mg/kg in assay [1] came to 59%; in assay [2], 84%.
In the case of `CN1CCC2(CC1)OC(c1ccc(Cl)cc1)C1CCCCN12` (stereo not shown) [Example 13, hexahydro-1'-methyl-1-(4-chlorophenyl)spiro[3H-oxazolo[3,4-a]pyridine-3,4'-piperidine]], the inhibition at 50 mg/kg in assay [1] came out at 77%; in assay [2], 91%.
For `COc1ccc(C2OC3(CCNCC3)N3CCCCC23)cc1` (stereo not shown) [Example 14, Hexahydro-1-(4-methoxyphenyl)spiro[3H-oxazolo[3,4-a]pyridine-3,4'-piperidine]], in that order: 57% and 89%.
In the same order, the values of `c1ccc(C2OC3(CCN(CC4CC4)CC3)N3CCCCC23)cc1` (stereo not shown) [Example 15, hexahydro-1'-(cyclopropylmethyl)-1-phenylspiro[3H-oxazolo[3,4-a]pyridine-3,4'-piperidine]] are 62% and 77%.
